PubChem BioAssay (NCI)
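Dose response: 5 concentrations. Exposure: 48 h. Format: 96-well plates. Endpoint: linear interpolation; highest concentration if not reached. The concentration for full growth arrest is given as TGI.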

Tests used:
Experiment in all cases: NCI tumour cell line growth inhibition, 48 h
[1] = tested on: SN12C renal
[2] = tested on: SF-295 CNS
[3] = tested on: SW-620 colon
[4] = tested on: HL-60(TB) leukemia
[5] = tested on: SF-539 CNS
[6] = tested on: 786-0 renal
[7] = tested on: SNB-19 CNS
[8] = tested on: UACC-257 melanoma
[9] = tested on: ACHN renal
[10] = tested on: LOX IMVI melanoma
[11] = tested on: SF-268 CNS
[12] = tested on: RPMI-8226 leukemia
[13] = tested on: CCRF-CEM leukemia
[14] = tested on: SR leukemia
[15] = tested on: DLD-1 colon
[16] = tested on: M19-MEL melanoma
[17] = tested on: HOP-18 NSCLC
[18] = tested on: HCT-116 colon
[19] = tested on: TK-10 renal
[20] = tested on: HOP-62 NSCLC
[21] = tested on: MOLT-4 leukemia
[22] = tested on: A549 NSCLC
[23] = tested on: IGROV1 ovarian
[24] = tested on: OVCAR-4 ovarian
[25] = tested on: LXFL 529 NSCLC
[26] = tested on: HCT-15 colon
[27] = tested on: COLO 205 colon
[28] = tested on: K-562 leukemia
[29] = tested on: UO-31 renal
[30] = tested on: RXF-631 renal
[31] = tested on: NCI-H23 lung
[32] = tested on: SK-MEL-2 melanoma
[33] = tested on: SK-MEL-5 melanoma
[34] = tested on: OVCAR-5 ovarian
[35] = tested on: HCC-2998 colon
[36] = tested on: DMS 114 small cell lung
[37] = tested on: KM12 colon
[38] = tested on: SK-MEL-28 melanoma
[39] = tested on: OVCAR-8 ovarian
[40] = tested on: KM20L2 colon
[41] = tested on: U251 CNS
[42] = tested on: A498 renal
[43] = tested on: EKVX NSCLC
[44] = tested on: RXF 393 renal
[45] = tested on: SNB-75 CNS
[46] = tested on: SK-OV-3 ovarian
[47] = tested on: CAKI-1 renal
[48] = tested on: NCI-H226 lung
[49] = tested on: HT29 colon
[50] = tested on: SNB-78 CNS
[51] = tested on: DMS 273 small cell lung
[52] = tested on: OVCAR-3 ovarian
[53] = tested on: NCI-H460 lung
[54] = tested on: M14 melanoma
[55] = tested on: NCI-H522 lung
[56] = tested on: MALME-3M melanoma
[57] = tested on: UACC-62 melanoma

COc1cc([C@@H]2c3cc4c(cc3C(N)C3COC(=O)[C@@H]32)OCO4)cc(OC)c1O (stereo partly drawn)
TGI [1]: > 100 µM | TGI [2]: > 100 µM | TGI [3]: > 100 µM | TGI [4]: 0.555 µM | TGI [5]: 0.586 µM | TGI [6]: > 100 µM | TGI [7]: 0.646 µM | TGI [8]: > 100 µM | TGI [9]: > 100 µM | TGI [10]: > 100 µM | TGI [11]: > 100 µM | TGI [12]: > 100 µM | TGI [13]: > 100 µM | TGI [14]: 0.428 µM | TGI [15]: > 100 µM | TGI [16]: > 100 µM | TGI [17]: > 100 µM | TGI [18]: > 100 µM | TGI [19]: > 100 µM | TGI [20]: > 100 µM | TGI [21]: 1.17 µM | TGI [22]: > 100 µM | TGI [23]: > 100 µM | TGI [24]: > 100 µM | TGI [25]: > 100 µM | TGI [26]: > 100 µM | TGI [27]: 0.362 µM | TGI [28]: > 100 µM | TGI [29]: > 100 µM | TGI [30]: 0.606 µM | TGI [31]: > 100 µM

CN(C)c1ccc(C(=C(c2ccc(N(C)C)cc2)c2ccc(N(C)C)cc2)c2ccc(N(C)C)cc2)cc1
TGI [1]: 35.2 µM | TGI [2]: 27.8 µM | TGI [32]: 28.5 µM | TGI [33]: 31.8 µM | TGI [3]: 20.8 µM | TGI [4]: 26.5 µM | TGI [5]: 28 µM | TGI [6]: 23.7 µM | TGI [7]: 29.4 µM | TGI [34]: > 100 µM | TGI [35]: 35.3 µM | TGI [36]: 49.3 µM | TGI [37]: 47.8 µM | TGI [38]: 29.4 µM | TGI [39]: 44.7 µM | TGI [8]: 34.8 µM | TGI [40]: 42.4 µM | TGI [9]: 24.6 µM | TGI [10]: 31.2 µM | TGI [11]: 56.4 µM | TGI [41]: 28.1 µM | TGI [42]: 36.8 µM | TGI [43]: 34.4 µM | TGI [44]: 25.2 µM | TGI [45]: 27.8 µM | TGI [12]: 47.6 µM | TGI [13]: 50.4 µM | TGI [14]: 30.8 µM | TGI [46]: 41.8 µM | TGI [15]: 41.5 µM | TGI [16]: 70.9 µM | TGI [47]: 28 µM | TGI [48]: 36.9 µM | TGI [49]: 35.2 µM | TGI [17]: 26.1 µM | TGI [18]: 42.1 µM | TGI [50]: > 100 µM | TGI [19]: 31.5 µM | TGI [51]: 38.9 µM | TGI [52]: 2.97 µM | TGI [20]: > 100 µM | TGI [21]: 41 µM | TGI [22]: 31.4 µM | TGI [23]: 34 µM | TGI [53]: 32.3 µM | TGI [24]: > 100 µM | TGI [54]: 22 µM | TGI [25]: 25.6 µM | TGI [55]: 1.12 µM | TGI [26]: 32.7 µM | TGI [27]: > 100 µM | TGI [28]: 36.9 µM | TGI [56]: 32.6 µM | TGI [29]: 39.9 µM | TGI [57]: 36.1 µM | TGI [30]: 40.6 µM | TGI [31]: 33.6 µM
